Experimental data: ChEMBL document CHEMBL1201862, “PubChem BioAssay data set” (2004)
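How tested: cells in 96-well plates exposed to compound for 48 hours at five concentrations. The concentration for 50% growth inhibition is given as GI50.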 Active and inactive are the calls of the source. No stated cut-off is given here; in the data, active = GI50 up to about 1.1 µM and inactive = higher.

Columns and labels:
Experiment in all cases: NCI tumour cell line growth inhibition, 48 h
[1] = system: SK-OV-3
[2] = system: SF-539
[3] = system: RPMI-8226
[4] = system: HL-60
[5] = system: MOLT-4
[6] = system: SNB-75
[7] = system: OVCAR-5
[8] = system: HOP-62
[9] = system: OVCAR-3
[10] = system: SR
[11] = system: K562
[12] = system: SF-295
[13] = system: IGROV-1
[14] = system: UACC-62
[15] = system: TK-10
[16] = system: SK-MEL-5
[17] = system: SK-MEL-2
[18] = system: NCI-H522

Compound	GI50 [1]	GI50 [2]	GI50 [3]	GI50 [4]	GI50 [5]	GI50 [6]	GI50 [7]	GI50 [8]	GI50 [9]	GI50 [10]	GI50 [11]	GI50 [12]	GI50 [13]	GI50 [14]	GI50 [15]	GI50 [16]	GI50 [17]	GI50 [18]
O=C1N[C@@H]2CCCC[C@@H]2C12CCCCC2	> 100 µM (inactive)	> 100 µM (inactive)	> 100 µM (inactive)	> 100 µM (inactive)	> 100 µM (inactive)	> 100 µM (inactive)	> 100 µM (inactive)	> 100 µM (inactive)	> 100 µM (inactive)	> 100 µM (inactive)	> 100 µM (inactive)	> 100 µM (inactive)	> 100 µM (inactive)	> 100 µM (inactive)	> 100 µM (inactive)	–	–	–
COc1nc(N)c(C(=O)CCl)c(=O)n1C	–	18 µM (inactive)	2.71 µM (inactive)	2.17 µM (inactive)	13.9 µM (inactive)	13.3 µM (inactive)	20.2 µM (inactive)	–	–	15.3 µM (inactive)	8.17 µM (inactive)	15.2 µM (inactive)	13.6 µM (inactive)	–	14.7 µM (inactive)	15.1 µM (inactive)	12.5 µM (inactive)	–
COc1cc(-c2ccc(/N=N/c3ccc4c(S(=O)(=O)O)cc(S(=O)(=O)O)c(N)c4c3O)c(OC)c2)ccc1/N=N/c1ccc2c(S(=O)(=O)O)cc(S(=O)(=O)O)c(N)c2c1O	> 100 µM (inactive)	> 100 µM (inactive)	> 100 µM (inactive)	> 41.6 µM (inactive)	> 100 µM (inactive)	> 100 µM (inactive)	> 91.2 µM (inactive)	> 100 µM (inactive)	> 100 µM (inactive)	–	> 100 µM (inactive)	> 100 µM (inactive)	> 100 µM (inactive)	> 100 µM (inactive)	–	> 100 µM (inactive)	> 100 µM (inactive)	> 100 µM (inactive)
COc1cc(/C=C(/C#N)C(N)=O)ccc1O	> 100 µM (inactive)	> 100 µM (inactive)	> 100 µM (inactive)	> 100 µM (inactive)	> 100 µM (inactive)	> 50.1 µM (inactive)	> 100 µM (inactive)	> 100 µM (inactive)	> 100 µM (inactive)	–	> 100 µM (inactive)	> 100 µM (inactive)	> 100 µM (inactive)	> 100 µM (inactive)	–	> 22.2 µM (inactive)	> 70.8 µM (inactive)	> 100 µM (inactive)
Cc1ccc2nc(/C(=C/c3ccc(/C=C(\NC(=O)c4ccccc4)c4nc5ccc(C)cc5[nH]4)c(C)c3)NC(=O)c3ccccc3)[nH]c2c1	13.7 µM (inactive)	10.2 µM (inactive)	16.6 µM (inactive)	–	0.383 µM (active)	7.08 µM (inactive)	19.6 µM (inactive)	46.6 µM (inactive)	6.19 µM (inactive)	27.2 µM (inactive)	0.785 µM (active)	–	1.81 µM (inactive)	1.14 µM (inactive)	47.1 µM (inactive)	1.91 µM (inactive)	5.13 µM (inactive)	22.2 µM (inactive)
O=c1cccccc1NCCOCCNc1cccccc1=O	> 100 µM (inactive)	–	> 100 µM (inactive)	> 100 µM (inactive)	> 100 µM (inactive)	16.9 µM (inactive)	> 100 µM (inactive)	> 100 µM (inactive)	> 100 µM (inactive)	–	> 100 µM (inactive)	> 100 µM (inactive)	> 100 µM (inactive)	> 100 µM (inactive)	> 100 µM (inactive)	> 100 µM (inactive)	> 100 µM (inactive)	> 100 µM (inactive)
CCCCCCCCCCCCCCNCC(OC)OC	18.7 µM (inactive)	16.9 µM (inactive)	–	5.25 µM (inactive)	–	13.8 µM (inactive)	14.6 µM (inactive)	16.7 µM (inactive)	17.3 µM (inactive)	–	–	19.7 µM (inactive)	17 µM (inactive)	19.6 µM (inactive)	17.4 µM (inactive)	15.2 µM (inactive)	16.4 µM (inactive)	16.9 µM (inactive)
NC(=O)CCC(N=C(N)c1csc(C2OC(CO)C(O)C2O)n1)C(=O)O (centres undefined)	> 100 µM (inactive)	> 100 µM (inactive)	> 100 µM (inactive)	> 100 µM (inactive)	> 100 µM (inactive)	> 100 µM (inactive)	> 100 µM (inactive)	–	–	–	> 100 µM (inactive)	> 100 µM (inactive)	> 100 µM (inactive)	> 100 µM (inactive)	> 100 µM (inactive)	> 100 µM (inactive)	> 100 µM (inactive)	> 100 µM (inactive)
CN(C)CCC1(C2=CCCC2)CC/C(=C\c2ccc3c(c2)OCO3)C1=O (centres undefined)	–	16 µM (inactive)	23.7 µM (inactive)	14.3 µM (inactive)	12.3 µM (inactive)	–	15.8 µM (inactive)	–	15.8 µM (inactive)	–	11.5 µM (inactive)	16 µM (inactive)	> 10 µM (inactive)	21.5 µM (inactive)	15.8 µM (inactive)	14.1 µM (inactive)	16.9 µM (inactive)	–
CC1=C2C(O)C(C(C)C(=O)NCC(C)C)CCC2(C)C=CC1=O (centres undefined)	–	> 100 µM (inactive)	> 100 µM (inactive)	> 100 µM (inactive)	> 100 µM (inactive)	> 100 µM (inactive)	> 100 µM (inactive)	> 100 µM (inactive)	> 100 µM (inactive)	–	> 100 µM (inactive)	> 100 µM (inactive)	> 100 µM (inactive)	> 100 µM (inactive)	–	> 100 µM (inactive)	> 100 µM (inactive)	> 100 µM (inactive)
CCCCCCCC(=O)OC(COC(=O)Cc1ccccc1)COC(=O)C(C)(C)C (centres undefined)	> 100 µM (inactive)	–	> 100 µM (inactive)	51.6 µM (inactive)	71.9 µM (inactive)	–	> 100 µM (inactive)	> 100 µM (inactive)	> 100 µM (inactive)	64 µM (inactive)	52.4 µM (inactive)	> 100 µM (inactive)	> 100 µM (inactive)	> 100 µM (inactive)	> 100 µM (inactive)	74 µM (inactive)	–	–
Cn1c(=O)c2nc3c4ccccc4c(=O)n(C)c3nc2n(C)c1=O	> 100 µM (inactive)	> 100 µM (inactive)	> 100 µM (inactive)	–	> 100 µM (inactive)	> 100 µM (inactive)	> 100 µM (inactive)	–	> 100 µM (inactive)	> 100 µM (inactive)	> 100 µM (inactive)	> 100 µM (inactive)	> 100 µM (inactive)	> 100 µM (inactive)	> 100 µM (inactive)	> 100 µM (inactive)	> 100 µM (inactive)	–
COC(=O)c1sc(C(=O)OC)c2c1C[S+]([O-])C2	> 100 µM (inactive)	> 100 µM (inactive)	> 100 µM (inactive)	> 100 µM (inactive)	> 100 µM (inactive)	> 100 µM (inactive)	> 100 µM (inactive)	–	> 100 µM (inactive)	–	> 100 µM (inactive)	> 100 µM (inactive)	> 100 µM (inactive)	> 100 µM (inactive)	> 100 µM (inactive)	> 100 µM (inactive)	> 100 µM (inactive)	> 100 µM (inactive)
C=CCn1c2ccccc2c2c(C)c3cnccc3c(C)c21	5.9 µM (inactive)	10.7 µM (inactive)	3.61 µM (inactive)	3.17 µM (inactive)	2.95 µM (inactive)	13.2 µM (inactive)	6.38 µM (inactive)	9.98 µM (inactive)	11.1 µM (inactive)	–	5.6 µM (inactive)	9.86 µM (inactive)	8.75 µM (inactive)	9.35 µM (inactive)	–	6.82 µM (inactive)	15.8 µM (inactive)	5.52 µM (inactive)
Cn1cc(NC(=O)c2cc(NC(=O)CCCCCCCC(=O)Nc3cc(C(=O)Nc4cc(C(=O)NCCC(=N)N)n(C)c4)n(C)c3)cn2C)cc1C(=O)NCCC(=N)N	> 100 µM (inactive)	17.7 µM (inactive)	–	3.15 µM (inactive)	21.9 µM (inactive)	35.2 µM (inactive)	> 100 µM (inactive)	> 100 µM (inactive)	32.1 µM (inactive)	5.26 µM (inactive)	11 µM (inactive)	> 100 µM (inactive)	5.82 µM (inactive)	15.7 µM (inactive)	15 µM (inactive)	7.53 µM (inactive)	14.1 µM (inactive)	–
C=CC12CN(C)C3C4COC(CC41)C1(C(=O)Nc4ccccc41)C32 (centres undefined)	> 20 µM (inactive)	> 200 µM (inactive)	> 195 µM (inactive)	152 µM (inactive)	> 200 µM (inactive)	146 µM (inactive)	> 200 µM (inactive)	> 147 µM (inactive)	> 200 µM (inactive)	–	165 µM (inactive)	> 200 µM (inactive)	> 200 µM (inactive)	> 178 µM (inactive)	–	> 200 µM (inactive)	> 148 µM (inactive)	44.7 µM (inactive)
C=C(C)C(=O)OC1C/C(CO)=C\C(O)C/C(C)=C/C2OC(=O)C(=C)C21 (centres undefined)	> 100 µM (inactive)	21 µM (inactive)	17.3 µM (inactive)	–	21.3 µM (inactive)	32.4 µM (inactive)	45.8 µM (inactive)	> 100 µM (inactive)	25.1 µM (inactive)	19.9 µM (inactive)	18 µM (inactive)	> 100 µM (inactive)	48.4 µM (inactive)	19.9 µM (inactive)	21.1 µM (inactive)	21 µM (inactive)	17 µM (inactive)	12.8 µM (inactive)
Cc1cccc(Cl)c1NC(N)=S	44.4 µM (inactive)	33.7 µM (inactive)	19 µM (inactive)	38.4 µM (inactive)	47.1 µM (inactive)	47.1 µM (inactive)	63.8 µM (inactive)	50.8 µM (inactive)	26.4 µM (inactive)	–	28.3 µM (inactive)	73.8 µM (inactive)	35.4 µM (inactive)	69.7 µM (inactive)	50.9 µM (inactive)	> 100 µM (inactive)	–	–
